Source: patent publication US20250221405A1, “ROOT NODULE FORMATION-PROMOTING COMPOSITION, AND ROOT HAIR FORMATION-PROMOTING COMPOSITION” (KANEKA CORPORATION, priority 2022, published 2025)

Experiments:
soybeans (Fukuyutaka) [1] = assay: Experimental Example 1: seed coating, number of root nodules; assay type: in vivo, soybean; conditions: Table 1-1
Procedure: (§1) A solution of SF, SL, or RL dissolved in water (a composition for promoting root nodule formation) as the following amount in each of the following treatments was prepared. The seeds of soybeans (Fukuyutaka) were coated using the solution in an amount of 800 μL/100 g seed to obtain coated seeds.
(§2) A 9 cm poly pot was filled with culture soil and seeded with three coated seeds in each pot.
(§3) After seeding, the coated seeds were cultivated in a greenhouse set at 28° C. during the day (14h) and 18° C. at night (10h).
Seven days after the seeding, the soybeans in each pot were thinned to one plant, and each pot was irrigated with 4.3 ml of a mixture of rhizobium materials (rhizobium and azospirillum) mixed with water at a proportion of 10 g/L.
(§4) Twenty-one days after the irrigation, the roots were washed with water so as not to remove root nodules, the culture soil was removed, and then, the root nodules formed on the roots were collected.
After the seeding, each pot was fertilized with ½ Hoagland solution once a week. In addition, experiments were conducted on eight pots (eight plants) in each treatment.
(§5) A plurality of experiments were conducted by changing the type of the composition for promoting root nodule formation and the like. Tables 1-1 and 1-2 show the date of seeding, the date of irrigating, the date of investigating the number of root nodules, the amount of SF, SL, or RL in the composition for promoting root nodule formation, and the investigation result of the number of root nodules. Note that the number of root nodules is indicated by a relative value with Tl taken as 100, with a numerical value in parentheses indicating the average number of root nodules actually measured (pieces/plant).

[2] = test system: Japanese mustard spinach (Haru no Senbatsu); assay: Experimental Example 5: foliar application, microscopic observation of root hair; assay type: in vivo; set-up: key: those with a significant root hair increase observed were evaluated as AA; those with a root hair increase observed were evaluated as BB; those with no root hair increase observed were evaluated as CC; those with an overall or partial root hair decrease observed were evaluated as DD
Procedure: An observation tank formed with ½ MS agar medium (0.8% agar) was prepared in an acrylic tank. Japanese mustard spinach (Haru no Senbatsu) was seeded near the surface of the observation tank. After seeding, the Japanese mustard spinach was cultivated in an incubator set in a light period (6:00-18:00, temperature 26° C., illuminance 120 μmol/m^2·s) and a dark period (18:00-6:00, temperature 18° C.). Twelve to fourteen days after the seeding, the following liquid (a composition for promoting root hair formation) was applied on the leaf surfaces of the plant body (foliar application) so as not to drip on the agar in each of the following treatments. […] A plurality of experiments were conducted by changing the date of seeding, the date of foliar application, the date of observation, and the type of the composition for promoting root hair formation and the like. Tables 5 to 9 show the composition for promoting root hair formation, the outline of operation and the observation results of root hair.

soybeans (Fukuyutaka) [3] = assay: Experimental Example 3: seed coating with biosurfactant and/or KVP, number of root nodules; assay type: in vivo, soybean; conditions: Table 3-1
Procedure: as §1, with “RL and/or KVP” for “RL”
as §2, §3
Seven days after the seeding, the soybeans in each pot were thinned to one plant, and each pot was irrigated with 4.3 mL of a mixture of rhizobium materials (rhizobium and azospirillum) mixed with water at a proportion of 10 g/L.
as §4
After the seeding, each pot was fertilized with ½ Hoagland solution (50 mL) once a week. In addition, experiments were conducted on eight pots (eight plants) in each treatment.
as §5, with “3-1” for “1-1”, “3-2” for “1-2”, “amounts” for “date of seeding, the date of irrigating, the date of investigating the number of root nodules, the amount”, “RL and/or KVP” for “RL”, “formation” for “formation,”

[4] = test system: Japanese mustard spinach (Haru no Senbatsu); assay: Experimental Example 6: SF in agar medium, microscopic observation of root hair; assay type: in vivo; set-up: key: those with a significant root hair increase observed were evaluated as AA; those with a root hair increase observed were evaluated as BB; those with no root hair increase observed were evaluated as CC; those with an overall or partial root hair decrease observed were evaluated as DD; conditions: Table 10, eight days after seeding
Procedure: An observation tank (a composition for promoting root hair formation) formed by adding 1% SF aqueous solution to ½ MS agar medium (0.8% agar) so as to obtain the following dilution factor was prepared in an acrylic tank. Japanese mustard spinach (Haru no Senbatsu) was seeded near the surface of the observation tank.
After seeding, the Japanese mustard spinach was cultivated in an incubator set in a light period (6:00-18:00, temperature 26° C., illuminance 120 μmol/m^2·s) and a dark period (18:00-6:00, temperature 18° C.).
Eight days after the seeding, the amount of root hair at a point of 1 cm from the tip of the roots was observed under a microscope (microscopic observation). In the T1 (Control), ½ MS agar medium without mixing 1% SF aqueous solution in the medium was used as the observation tank.
As a result of the observation, compared with the T1, those with a significant root hair increase observed were evaluated as AA, those with a root hair increase observed were evaluated as BB, those with no root hair increase observed were evaluated as CC, and those with an overall or partial root hair decrease observed were evaluated as DD.
A plurality of experiments were conducted by changing the date of seeding, the date of observation, and the type of the composition for promoting root hair formation and the like. […]

[5] = seed coating 0.1 g/t seed (diluted 80000 times), 21 days after rhizobium irrigation
[6] = seed coating 1 g/t seed (diluted 8000 times)
[7] = seed coating 5 g/t seed (diluted 1600 times)
[8] = seed coating 10 g/t seed (diluted 800 times)
[9] = seed coating 25 g/t seed (diluted 320 times)
[10] = seed coating 50 g/t seed (diluted 160 times)
[11] = seed coating SF 0.5 g/t seed (diluted 16000 times)
[12] = seed coating SF 5 g/t seed (diluted 1600 times)

What does the source list for surfactin Na [SF]?
Number of Root Nodules, average number actually measured (soybeans (Fukuyutaka) [1]; [5]): 15.4 pieces/plant; Number of Root Nodules, relative value with T1 taken as 100 (soybeans (Fukuyutaka) [1]; [5]): 105; Number of Root Nodules, average number actually measured (soybeans (Fukuyutaka) [1]; [6]): 16.6 pieces/plant; Number of Root Nodules, relative value with T1 taken as 100 (soybeans (Fukuyutaka) [1]; [6]): 114; Number of Root Nodules, average number actually measured (soybeans (Fukuyutaka) [1]; [7]): 16.6 pieces/plant; Number of Root Nodules, relative value with T1 taken as 100 (soybeans (Fukuyutaka) [1]; [7]): 114; Number of Root Nodules, average number actually measured (soybeans (Fukuyutaka) [1]; [8]): 15.4 pieces/plant; Number of Root Nodules, relative value with T1 taken as 100 (soybeans (Fukuyutaka) [1]; [8]): 105; Number of Root Nodules, average number actually measured (soybeans (Fukuyutaka) [1]; [9]): 16.8 pieces/plant; Number of Root Nodules, relative value with T1 taken as 100 (soybeans (Fukuyutaka) [1]; [9]): 115; Number of Root Nodules, average number actually measured (soybeans (Fukuyutaka) [1]; [10]): 17.3 pieces/plant; Number of Root Nodules, relative value with T1 taken as 100 (soybeans (Fukuyutaka) [1]; [10]): 118; Observation Result (root hair) ([2]; Table 5, aqueous solution diluted 1000 times, compared with T1): BB; Observation Result (root hair) ([2]; Table 5, aqueous solution diluted 2000 times): AA; Observation Result (root hair) ([2]; Table 5, aqueous solution diluted 5000 times): AA; Number of Root Nodules, average number actually measured (soybeans (Fukuyutaka) [3]; [11]): 25.3 pieces/plant; Number of Root Nodules, relative value with T1 taken as 100 (soybeans (Fukuyutaka) [3]; [11]): 109; Number of Root Nodules, average number actually measured (soybeans (Fukuyutaka) [3]; [12]): 26.9 pieces/plant; Number of Root Nodules, relative value with T1 taken as 100 (soybeans (Fukuyutaka) [3]; [12]): 116; Observation Result (root hair) ([4]; agar medium with SF diluted 5000 times): AA; Observation Result (root hair) ([4]; agar medium with SF diluted 10000 times): BB
